According to the kinase profiling compilation of Christmann-Franck et al. (2016):

Experiments:
Assay in all cases: KINOMEscan competition binding
Conditions in all cases: compound 10.0 µM
PAK2 (human) = PAK2 (human) (UniProt Q13177)
TEK (human) = TEK (human) (UniProt Q02763)
HIPK3 (human) = HIPK3 (human) (UniProt Q9H422)
[1] = test system: RET (human), P07949 [V804M]
CDKL3 (human) = CDKL3 (human) (UniProt Q8IVW4)
RPS6KB1 (human) = RPS6KB1 (human) (UniProt P23443)
EPHA8 (human) = EPHA8 (human) (UniProt P29322)
GAK (human) = GAK (human) (UniProt O14976)
MTOR (human) = MTOR (human) (UniProt P42345)
CLK3 (human) = CLK3 (human) (UniProt P49761)
MAP3K3 (human) = MAP3K3 (human) (UniProt Q99759)
BTK (human) = BTK (human) (UniProt Q06187)
PAK6 (human) = PAK6 (human) (UniProt Q9NQU5)
EPHB1 (human) = EPHB1 (human) (UniProt P54762)
STK35 (human) = STK35 (human) (UniProt Q8TDR2)
INSRR (human) = INSRR (human) (UniProt P14616)
DYRK2 (human) = DYRK2 (human) (UniProt Q92630)
NTRK3 (human) = NTRK3 (human) (UniProt Q16288)
MAP2K1 (human) = MAP2K1 (human) (UniProt Q02750)
ERBB2 (human) = ERBB2 (human) (UniProt P04626)
MAP2K6 (human) = MAP2K6 (human) (UniProt P52564)
NEK6 (human) = NEK6 (human) (UniProt Q9HC98)
GSK3B (human) = GSK3B (human) (UniProt P49841)
PI4KB (human) = PI4KB (human) (UniProt Q9UBF8)
TLK1 (human) = TLK1 (human) (UniProt Q9UKI8)
CaMK1 (human) = CaMK1 (human) (UniProt Q14012)
TESK1 (human) = TESK1 (human) (UniProt Q15569)
PRKD1 (human) = PRKD1 (human) (UniProt Q15139)
STK17B (human) = STK17B (human) (UniProt O94768)
AXL (human) = AXL (human) (UniProt P30530)
ERBB4 (human) = ERBB4 (human) (UniProt Q15303)
SBK1 (human) = SBK1 (human) (UniProt Q52WX2)
ACVR2B (human) = ACVR2B (human) (UniProt Q13705)
SYK (human) = SYK (human) (UniProt P43405)
CDK14 (human) = CDK14 (human) (UniProt O94921)
IGF1R (human) = IGF1R (human) (UniProt P08069)
HUNK (human) = HUNK (human) (UniProt P57058)
DCLK3 (human) = DCLK3 (human) (UniProt Q9C098)
RPS6KA1 KD1 (human) = RPS6KA1 KD1 (human) (UniProt Q15418)
CDK7 (human) = CDK7 (human) (UniProt P50613)
ABL2 (human) = ABL2 (human) (UniProt P42684)

Sequence of EPHA8 (human) (P29322 whole entry, looked up): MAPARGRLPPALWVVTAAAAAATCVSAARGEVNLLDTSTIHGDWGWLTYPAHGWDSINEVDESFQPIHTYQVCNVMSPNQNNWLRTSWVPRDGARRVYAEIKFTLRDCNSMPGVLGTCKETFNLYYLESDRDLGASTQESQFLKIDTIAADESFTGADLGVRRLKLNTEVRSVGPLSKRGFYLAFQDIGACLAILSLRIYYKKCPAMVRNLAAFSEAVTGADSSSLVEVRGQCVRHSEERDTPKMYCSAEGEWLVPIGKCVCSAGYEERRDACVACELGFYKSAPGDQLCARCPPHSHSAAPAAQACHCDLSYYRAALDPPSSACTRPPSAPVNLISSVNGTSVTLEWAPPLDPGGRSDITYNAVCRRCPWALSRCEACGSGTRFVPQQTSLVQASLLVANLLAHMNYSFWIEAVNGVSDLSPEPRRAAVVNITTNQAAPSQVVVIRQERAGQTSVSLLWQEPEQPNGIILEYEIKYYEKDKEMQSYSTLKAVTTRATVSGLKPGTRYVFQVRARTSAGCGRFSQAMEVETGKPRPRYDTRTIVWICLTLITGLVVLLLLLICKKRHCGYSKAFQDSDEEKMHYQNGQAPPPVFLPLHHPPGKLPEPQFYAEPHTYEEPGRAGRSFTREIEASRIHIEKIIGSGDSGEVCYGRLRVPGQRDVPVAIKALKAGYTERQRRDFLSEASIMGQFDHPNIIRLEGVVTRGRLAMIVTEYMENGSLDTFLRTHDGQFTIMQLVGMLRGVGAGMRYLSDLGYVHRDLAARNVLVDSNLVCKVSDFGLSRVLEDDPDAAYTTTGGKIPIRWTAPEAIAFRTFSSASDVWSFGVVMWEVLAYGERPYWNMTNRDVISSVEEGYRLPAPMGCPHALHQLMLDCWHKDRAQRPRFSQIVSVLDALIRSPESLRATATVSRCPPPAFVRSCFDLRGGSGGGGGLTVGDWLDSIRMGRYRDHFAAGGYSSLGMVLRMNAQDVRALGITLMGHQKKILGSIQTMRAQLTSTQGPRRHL
Sequence of IGF1R (human) (P08069 whole entry, looked up): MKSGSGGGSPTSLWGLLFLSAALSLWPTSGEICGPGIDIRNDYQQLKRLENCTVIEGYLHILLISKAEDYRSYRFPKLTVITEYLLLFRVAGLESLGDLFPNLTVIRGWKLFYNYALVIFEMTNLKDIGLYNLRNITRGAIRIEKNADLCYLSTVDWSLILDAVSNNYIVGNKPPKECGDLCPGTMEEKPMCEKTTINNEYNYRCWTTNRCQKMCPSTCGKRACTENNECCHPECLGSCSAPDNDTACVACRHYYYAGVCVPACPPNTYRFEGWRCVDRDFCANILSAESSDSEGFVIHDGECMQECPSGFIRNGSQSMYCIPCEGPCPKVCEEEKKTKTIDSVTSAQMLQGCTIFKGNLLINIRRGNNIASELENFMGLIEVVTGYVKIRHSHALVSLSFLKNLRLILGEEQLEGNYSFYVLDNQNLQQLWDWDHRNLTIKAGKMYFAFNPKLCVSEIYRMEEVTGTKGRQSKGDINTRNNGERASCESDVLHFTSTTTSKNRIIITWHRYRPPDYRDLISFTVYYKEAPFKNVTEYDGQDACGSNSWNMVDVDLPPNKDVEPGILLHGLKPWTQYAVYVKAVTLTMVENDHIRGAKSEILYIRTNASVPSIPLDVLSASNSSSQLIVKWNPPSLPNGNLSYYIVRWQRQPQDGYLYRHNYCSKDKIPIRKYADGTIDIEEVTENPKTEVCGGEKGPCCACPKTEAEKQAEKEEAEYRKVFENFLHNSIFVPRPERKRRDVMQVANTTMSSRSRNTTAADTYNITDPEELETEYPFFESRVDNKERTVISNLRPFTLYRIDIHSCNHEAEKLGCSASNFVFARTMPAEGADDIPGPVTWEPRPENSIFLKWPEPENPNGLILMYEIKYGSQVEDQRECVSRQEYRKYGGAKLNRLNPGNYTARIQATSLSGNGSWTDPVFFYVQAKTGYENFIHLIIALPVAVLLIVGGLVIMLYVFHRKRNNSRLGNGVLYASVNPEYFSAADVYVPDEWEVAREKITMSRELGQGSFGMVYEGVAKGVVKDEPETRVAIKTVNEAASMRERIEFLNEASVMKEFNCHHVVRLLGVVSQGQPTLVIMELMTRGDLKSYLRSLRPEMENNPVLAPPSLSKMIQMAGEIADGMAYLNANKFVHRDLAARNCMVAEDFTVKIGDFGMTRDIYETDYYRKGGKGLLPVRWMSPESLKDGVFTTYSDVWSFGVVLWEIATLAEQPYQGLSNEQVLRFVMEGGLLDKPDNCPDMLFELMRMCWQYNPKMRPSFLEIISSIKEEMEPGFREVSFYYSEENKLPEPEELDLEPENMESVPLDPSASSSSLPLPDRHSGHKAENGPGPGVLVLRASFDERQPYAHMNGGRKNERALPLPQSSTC
Sequence of MAP2K1 (human) (Q02750 whole entry, looked up): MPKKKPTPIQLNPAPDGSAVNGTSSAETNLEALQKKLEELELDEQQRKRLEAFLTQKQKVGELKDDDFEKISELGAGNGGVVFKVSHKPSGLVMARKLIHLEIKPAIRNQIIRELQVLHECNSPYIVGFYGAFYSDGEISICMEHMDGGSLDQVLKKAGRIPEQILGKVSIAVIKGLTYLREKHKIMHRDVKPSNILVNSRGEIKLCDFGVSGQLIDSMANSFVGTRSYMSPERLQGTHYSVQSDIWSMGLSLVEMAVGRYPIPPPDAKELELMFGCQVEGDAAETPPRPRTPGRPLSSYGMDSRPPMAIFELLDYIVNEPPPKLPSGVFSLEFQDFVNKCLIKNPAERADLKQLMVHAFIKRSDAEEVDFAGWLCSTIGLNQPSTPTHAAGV
Sequence of NEK6 (human) (Q9HC98 whole entry, looked up): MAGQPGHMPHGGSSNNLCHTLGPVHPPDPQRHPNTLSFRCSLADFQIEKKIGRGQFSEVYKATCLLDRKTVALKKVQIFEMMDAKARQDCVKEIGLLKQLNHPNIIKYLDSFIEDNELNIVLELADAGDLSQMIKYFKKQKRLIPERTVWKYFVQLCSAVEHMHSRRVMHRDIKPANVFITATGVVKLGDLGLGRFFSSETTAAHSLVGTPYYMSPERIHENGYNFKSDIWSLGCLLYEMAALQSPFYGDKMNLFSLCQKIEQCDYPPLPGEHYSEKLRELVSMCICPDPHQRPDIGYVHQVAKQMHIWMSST
Sequence of NTRK3 (human) (Q16288 whole entry, looked up): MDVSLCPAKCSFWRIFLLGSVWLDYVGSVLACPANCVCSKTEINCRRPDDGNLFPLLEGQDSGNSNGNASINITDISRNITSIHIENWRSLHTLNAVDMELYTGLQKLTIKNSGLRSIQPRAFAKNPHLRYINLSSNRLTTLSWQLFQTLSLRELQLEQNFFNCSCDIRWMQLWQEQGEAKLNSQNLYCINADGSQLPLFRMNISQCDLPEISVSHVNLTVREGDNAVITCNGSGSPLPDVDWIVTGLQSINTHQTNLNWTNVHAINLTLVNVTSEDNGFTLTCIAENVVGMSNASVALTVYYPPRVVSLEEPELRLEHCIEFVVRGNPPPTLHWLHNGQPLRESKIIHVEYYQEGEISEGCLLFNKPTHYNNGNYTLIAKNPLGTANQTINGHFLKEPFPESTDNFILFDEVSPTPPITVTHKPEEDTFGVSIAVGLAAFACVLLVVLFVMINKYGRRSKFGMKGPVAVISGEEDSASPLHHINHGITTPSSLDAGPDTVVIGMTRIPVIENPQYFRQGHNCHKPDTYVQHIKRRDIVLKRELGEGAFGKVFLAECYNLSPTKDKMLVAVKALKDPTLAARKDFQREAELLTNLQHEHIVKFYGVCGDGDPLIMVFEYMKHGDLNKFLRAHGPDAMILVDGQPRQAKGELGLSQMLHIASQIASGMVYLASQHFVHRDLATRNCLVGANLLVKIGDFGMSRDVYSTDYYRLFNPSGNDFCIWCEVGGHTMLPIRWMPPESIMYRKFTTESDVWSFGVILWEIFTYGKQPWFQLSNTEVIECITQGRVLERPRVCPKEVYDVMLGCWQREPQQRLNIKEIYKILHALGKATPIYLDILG
Sequence of TESK1 (human) (Q15569 whole entry, looked up): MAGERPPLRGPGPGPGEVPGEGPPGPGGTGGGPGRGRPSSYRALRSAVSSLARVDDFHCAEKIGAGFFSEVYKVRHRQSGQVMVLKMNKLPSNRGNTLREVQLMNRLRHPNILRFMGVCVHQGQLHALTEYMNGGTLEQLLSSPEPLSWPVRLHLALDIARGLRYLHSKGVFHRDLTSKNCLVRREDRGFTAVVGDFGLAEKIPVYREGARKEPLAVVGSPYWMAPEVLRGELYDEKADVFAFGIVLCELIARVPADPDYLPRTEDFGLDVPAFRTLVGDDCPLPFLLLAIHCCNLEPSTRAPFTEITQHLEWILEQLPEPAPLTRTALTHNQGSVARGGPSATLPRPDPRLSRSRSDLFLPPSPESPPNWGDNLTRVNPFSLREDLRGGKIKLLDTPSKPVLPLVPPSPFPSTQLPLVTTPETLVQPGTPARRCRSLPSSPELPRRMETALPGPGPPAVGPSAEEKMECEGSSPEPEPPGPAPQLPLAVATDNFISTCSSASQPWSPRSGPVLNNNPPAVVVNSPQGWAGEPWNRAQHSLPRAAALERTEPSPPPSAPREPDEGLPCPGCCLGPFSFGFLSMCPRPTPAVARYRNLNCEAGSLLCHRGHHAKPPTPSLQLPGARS
Sequence of MAP2K6 (human) (P52564 whole entry, looked up): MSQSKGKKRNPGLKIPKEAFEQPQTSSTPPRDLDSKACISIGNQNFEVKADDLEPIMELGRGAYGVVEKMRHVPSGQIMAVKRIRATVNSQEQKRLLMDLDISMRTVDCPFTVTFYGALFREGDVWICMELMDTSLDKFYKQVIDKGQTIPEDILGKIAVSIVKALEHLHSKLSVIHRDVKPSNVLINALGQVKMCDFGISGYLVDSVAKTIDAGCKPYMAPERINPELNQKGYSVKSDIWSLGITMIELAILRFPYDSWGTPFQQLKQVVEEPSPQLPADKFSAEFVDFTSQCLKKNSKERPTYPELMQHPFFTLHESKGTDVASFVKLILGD

SMILES | kinase still bound, per cent of control (PAK2 (human)) [%] | kinase still bound, per cent of control (TEK (human)) [%] | kinase still bound, per cent of control (HIPK3 (human)) [%] | kinase still bound, per cent of control (CDKL3 (human)) [%] | kinase still bound, per cent of control (RPS6KB1 (human)) [%] | kinase still bound, per cent of control (EPHA8 (human)) [%] | kinase still bound, per cent of control (GAK (human)) [%] | kinase still bound, per cent of control (MTOR (human)) [%] | kinase still bound, per cent of control (CLK3 (human)) [%] | kinase still bound, per cent of control (MAP3K3 (human)) [%] | kinase still bound, per cent of control (BTK (human)) [%] | kinase still bound, per cent of control (PAK6 (human)) [%] | kinase still bound, per cent of control (EPHB1 (human)) [%] | kinase still bound, per cent of control (STK35 (human)) [%] | kinase still bound, per cent of control (INSRR (human)) [%] | kinase still bound, per cent of control (DYRK2 (human)) [%] | kinase still bound, per cent of control (NTRK3 (human)) [%] | kinase still bound, per cent of control (MAP2K1 (human)) [%] | kinase still bound, per cent of control (ERBB2 (human)) [%] | kinase still bound, per cent of control (MAP2K6 (human)) [%] | other results
COc1cc2ncn(-c3cc(OCc4ccccc4C(F)(F)F)c(C(N)=O)s3)c2cc1OC | 96 | 57 | 77 | 100 | 65 | 74 | 4.1 | 78 | 83 | 74 | 86 | 94 | 96 | 56 | 100 | 37 | 93 | 67 | 100 | 85 | kinase still bound, per cent of control [1]: 62%; kinase still bound, per cent of control (NEK6 (human)): 87%; kinase still bound, per cent of control (GSK3B (human)): 100%; kinase still bound, per cent of control (PI4KB (human)): 100%; kinase still bound, per cent of control (TLK1 (human)): 96%; kinase still bound, per cent of control (CaMK1 (human)): 100%; kinase still bound, per cent of control (TESK1 (human)): 73%; kinase still bound, per cent of control (PRKD1 (human)): 100%; kinase still bound, per cent of control (STK17B (human)): 85%; kinase still bound, per cent of control (AXL (human)): 65%; kinase still bound, per cent of control (ERBB4 (human)): 80%; kinase still bound, per cent of control (SBK1 (human)): 96%; kinase still bound, per cent of control (ACVR2B (human)): 58%; kinase still bound, per cent of control (SYK (human)): 72%; kinase still bound, per cent of control (CDK14 (human)): 90%; kinase still bound, per cent of control (IGF1R (human)): 100%; kinase still bound, per cent of control (HUNK (human)): 82%; kinase still bound, per cent of control (DCLK3 (human)): 100%; kinase still bound, per cent of control (RPS6KA1 KD1 (human)): 96%
N#CCNC(=O)c1ccc(-c2ccnc(Nc3ccc(N4CCOCC4)cc3)n2)cc1 | 100 | 100 | 17 | 60 | 100 | 83 | 3.4 | 100 | 91 | 51 | 75 | 100 | 91 | 57 | 100 | 76 | 63 | 100 | 61 | 77 | kinase still bound, per cent of control (CDK7 (human)): 3.8%; kinase still bound, per cent of control (NEK6 (human)): 6.2%; kinase still bound, per cent of control (PI4KB (human)): 17%; kinase still bound, per cent of control (TLK1 (human)): 59%; kinase still bound, per cent of control (CaMK1 (human)): 59%; kinase still bound, per cent of control (TESK1 (human)): 100%; kinase still bound, per cent of control (PRKD1 (human)): 22%; kinase still bound, per cent of control (ABL2 (human)): 57%; kinase still bound, per cent of control (STK17B (human)): 2.6%; kinase still bound, per cent of control (AXL (human)): 57%; kinase still bound, per cent of control (ERBB4 (human)): 100%; kinase still bound, per cent of control (SBK1 (human)): 46%; kinase still bound, per cent of control (ACVR2B (human)): 54%; kinase still bound, per cent of control (SYK (human)): 32%; kinase still bound, per cent of control (CDK14 (human)): 76%; kinase still bound, per cent of control (IGF1R (human)): 100%; kinase still bound, per cent of control (HUNK (human)): 100%; kinase still bound, per cent of control (DCLK3 (human)): 0.45%; kinase still bound, per cent of control (RPS6KA1 KD1 (human)): 100%
